Here are results for three molecules from ChEMBL document CHEMBL3108752, “Iridal-type triterpenoids with neuroprotective activities from Iris tectorum” (2014).

This experiment relates to PC-12. The experiment can be described thus: Neuroprotective activity against serum-deprivation-induced damage in rat PC12 cells assessed as survival rate at 10 uM after 48 hrs by MTT assay relative to control. The experiment is classed as functional. Conditions: PC-12, 48 h, read-out: Survival.

Structures are written as SMILES.

With `CC(C)=CCC/C(C)=C/[C@H]1C=C(CO)[C@@H]2CC[C@]3([C@H](CCCO)/C(=C(/C)C=O)CC[C@]3(C)O)[C@@H]2O1`, the viability at 10 µM was 63.8%.

Turning to `CC(C)=CCC/C(=C\[C@H]1C=C(CO)[C@@H]2CC[C@]3([C@H](CCCO)/C(=C(\C)C=O)CC[C@]3(C)O)[C@@H]2O1)CO`, the viability at 10 µM stood at 50.9%.

Take `CC(C)=CCC/C(=C\[C@H]1C=C(CO)[C@@H]2CC[C@]3([C@H](CCCO)/C(=C(/C)C=O)CC[C@]3(C)O)[C@@H]2O1)CO`: the viability at 10 µM was determined as 54.1%.
